This note sets out measurements from patent US20240192196A1, “NOVEL C[…]-CoV-2 SAFE REPLICON SYSTEM AND USE THEREOF” (SUN YAT-SEN UNIVERSITY, priority 2020, published 2024).

Molecules are shown by their SMILES.

For the assay, the system named is novel coronavirus SARS-COV-2 safe replicon system. Put plainly: microbe, parasite or virus in culture. Format: cell-based. To be noted: Severe acute respiratory syndrome coronavirus 2, HEK-293T, read-out: IC50 (semi-inhibitory concentration), inhibition of cellular luciferase activity.

With `Cc1cccc(C)c1OCC(=O)N[C@@H](Cc1ccccc1)[C@@H](O)C[C@H](Cc1ccccc1)NC(=O)[C@H](C(C)C)N1CCCNC1=O` [Lopinavir], the IC50 amounted to 6.79 ± 1.09 µM.
The result for `CCC(CC)COC(=O)[C@H](C)N[P@](=O)(OC[C@H]1O[C@@](C#N)(c2ccc3c(N)ncnn23)[C@H](O)[C@@H]1O)Oc1ccccc1` [Remdesivir] reads 12.4 ± 1.08 µM.
